Results: US20260115250A1, “METHODS OF TREATING AGE-RELATED MACULAR DEGENERATION” (Character Biosciences, Inc., priority 2022, published 2026)
pEC50: −log10 of the molar value.

Columns and labels:
[1] = DMPC solubility assay, 0.5 mM DMPC (turbidity reduction); format: biochemical; conditions: for pEC50: 3.16-100 μM peptides, 15 minutes; for DMPC solubilizing activity: FIGS. 2A-2D and 3A-3C
Experimental: In this example, peptide stocks were diluted to 200 μM in H2O (a 2× solution) and 50 μL of peptide solution was transferred in triplicate into 96-well plates. A one mM solution of 1,2-dimyristoyl-sn-glycero-3-phosphocholine (DMPC) in H2O was prepared, and using a multichannel pipet, 50 μL DMPC solution was rapidly added to the plate. Peptide and lipid solutions were incubated at room temperature for 15 minutes with a final concentration of 100 μM peptides and 0.5 mM DMPC. After 15 minutes, absorbance was read on a plate reader at 405 nm. […] Data are presented as mean+SD over two runs.
In these experiments, DMPC solubility titration curves were generated. Peptide stocks were diluted to 200 μM in H2O (a 2× solution) and serially diluted in H2O over 4 concentrations, then 50 μL of peptide solutions were distributed in triplicate into 96-well plates. A 1 mM solution of 1,2-dimyristoyl-sn-glycero-3-phosphocholine (DMPC) in H2O was prepared, and using a multichannel pipet, 50 μL DMPC solution was rapidly added to the plate. Peptide and lipid solutions were incubated at room temperature for 15 minutes with final concentrations of 3.16-100 μM peptides and 0.5 mM DMPC. After 15 minutes, absorbance was read on a plate reader at 405 nm. […] Data are presented as mean+SD over two runs. Non-linear regression was used to calculate EC50 values.

ABCA1 = biological target: T1, ABCA1 (Homo sapiens, UniProt O95477); assay: membrane ABCA1 stability testing in ARPE-19 cells treated with mCRP; format: cell-based; conditions: ARPE-19, mCRP, 20 μM peptide, 24 hours
T1 construct: endogenous in cells; host or cells: ARPE-19
T1 sequence (O95477 whole entry): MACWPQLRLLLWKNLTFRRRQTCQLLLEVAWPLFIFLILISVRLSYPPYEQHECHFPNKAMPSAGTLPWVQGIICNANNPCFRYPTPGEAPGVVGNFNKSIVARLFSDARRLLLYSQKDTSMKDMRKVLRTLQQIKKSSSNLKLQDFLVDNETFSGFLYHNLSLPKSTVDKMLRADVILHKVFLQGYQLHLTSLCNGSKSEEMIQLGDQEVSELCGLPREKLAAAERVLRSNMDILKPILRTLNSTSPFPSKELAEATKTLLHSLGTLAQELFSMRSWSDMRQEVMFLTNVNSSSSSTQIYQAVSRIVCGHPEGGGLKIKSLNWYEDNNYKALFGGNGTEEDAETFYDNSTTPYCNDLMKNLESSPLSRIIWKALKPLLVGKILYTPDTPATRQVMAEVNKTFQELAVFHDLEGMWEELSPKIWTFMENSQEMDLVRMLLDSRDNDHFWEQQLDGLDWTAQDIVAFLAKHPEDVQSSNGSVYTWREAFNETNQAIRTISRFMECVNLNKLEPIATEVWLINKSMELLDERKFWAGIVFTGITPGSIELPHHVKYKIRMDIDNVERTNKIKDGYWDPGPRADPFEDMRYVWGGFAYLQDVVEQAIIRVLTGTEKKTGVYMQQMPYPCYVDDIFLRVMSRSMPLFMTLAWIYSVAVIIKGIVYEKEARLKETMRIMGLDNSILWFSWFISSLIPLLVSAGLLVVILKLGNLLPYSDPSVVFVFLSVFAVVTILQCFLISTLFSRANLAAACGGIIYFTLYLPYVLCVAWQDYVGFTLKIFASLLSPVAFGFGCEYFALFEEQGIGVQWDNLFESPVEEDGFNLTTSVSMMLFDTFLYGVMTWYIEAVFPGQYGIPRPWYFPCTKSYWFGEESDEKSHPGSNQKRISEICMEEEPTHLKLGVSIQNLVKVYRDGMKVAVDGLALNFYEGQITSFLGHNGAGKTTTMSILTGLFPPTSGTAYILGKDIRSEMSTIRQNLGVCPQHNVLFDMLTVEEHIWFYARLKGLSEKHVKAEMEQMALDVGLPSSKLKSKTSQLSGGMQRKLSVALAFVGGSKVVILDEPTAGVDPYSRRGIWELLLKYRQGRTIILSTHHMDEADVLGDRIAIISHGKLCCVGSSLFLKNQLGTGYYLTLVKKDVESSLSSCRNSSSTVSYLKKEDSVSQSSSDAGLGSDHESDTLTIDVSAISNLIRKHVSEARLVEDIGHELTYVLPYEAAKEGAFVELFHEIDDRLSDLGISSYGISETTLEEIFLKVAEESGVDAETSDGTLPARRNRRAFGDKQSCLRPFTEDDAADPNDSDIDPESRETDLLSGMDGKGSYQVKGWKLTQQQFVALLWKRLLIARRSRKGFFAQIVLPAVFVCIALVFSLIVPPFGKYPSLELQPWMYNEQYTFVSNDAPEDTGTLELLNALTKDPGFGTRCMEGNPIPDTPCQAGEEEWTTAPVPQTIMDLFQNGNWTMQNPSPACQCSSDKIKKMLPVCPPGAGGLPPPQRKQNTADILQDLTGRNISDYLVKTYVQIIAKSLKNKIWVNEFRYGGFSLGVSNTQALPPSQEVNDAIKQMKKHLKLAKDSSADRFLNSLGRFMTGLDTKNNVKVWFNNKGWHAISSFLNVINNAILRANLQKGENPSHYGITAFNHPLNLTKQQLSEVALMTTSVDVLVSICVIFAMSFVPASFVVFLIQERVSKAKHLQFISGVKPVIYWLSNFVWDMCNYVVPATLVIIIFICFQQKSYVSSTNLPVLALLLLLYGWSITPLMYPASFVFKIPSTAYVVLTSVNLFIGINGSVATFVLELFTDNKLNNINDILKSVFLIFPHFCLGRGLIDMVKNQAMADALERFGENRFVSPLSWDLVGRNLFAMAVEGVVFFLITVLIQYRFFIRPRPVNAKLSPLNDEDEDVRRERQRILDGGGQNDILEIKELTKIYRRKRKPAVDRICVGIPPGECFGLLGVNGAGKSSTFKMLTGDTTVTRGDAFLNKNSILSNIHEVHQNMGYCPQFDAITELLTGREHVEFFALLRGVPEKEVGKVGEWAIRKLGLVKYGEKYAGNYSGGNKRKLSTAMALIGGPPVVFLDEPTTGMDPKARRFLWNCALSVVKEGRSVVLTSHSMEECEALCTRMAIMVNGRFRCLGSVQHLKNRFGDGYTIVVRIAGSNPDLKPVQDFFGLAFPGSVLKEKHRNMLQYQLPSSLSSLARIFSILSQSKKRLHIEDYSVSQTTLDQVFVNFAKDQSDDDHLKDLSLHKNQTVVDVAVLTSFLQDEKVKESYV
Experimental: ARPE-19 cells were seeded at 100,000 cells per well on 12-well plates and were allowed to grow to confluence. To prepare monomeric CRP (mCRP), recombinant CRP was prepared in a PBS solution containing 8 M Urea and 10 mM EDTA and incubated at 37° C. for 2 hours prior to desalting with a Zeba spin column (7K MW cutoff). mCRP was prepared to a 2× solution of 20 μg/mL. A 2× solution of 40 μM peptides was prepared in serum-free DMEM and serially diluted 1:2 over 4 concentrations. mCRP and peptides were added 1:1 to cells for 24 hours at 37° C. before isolating membrane protein and measuring membrane ABCA1 levels by western blot. Blots were quantified in ImageJ. Signals were further normalized to the LXR agonist treated group to determine percent (%) ABCA1 remaining. Treatment with LXR agonist increased membrane ABCA1 levels in this assay, but following treatment with mCRP, membrane ABCA1 levels were decreased.
FIGS. 35 and 36 show membrane ABCA1 stability testing using ARPE-19 cells. ARPE-19 cells were seeded at 100,000 cells per well on 12-well plates and were allowed to grow to confluence. To prepare monomeric CRP (mCRP), recombinant CRP was prepared in a PBS solution containing 8 M Urea and 10 mM EDTA and incubated at 37° C. for 2 hours prior to desalting with a Zeba spin column (7K MW cutoff). mCRP was prepared to a 2× solution of 20 μg/mL. A 2× solution of 40 μM peptides was prepared in serum-free DMEM. CRP and peptides were added 1:1 to cells for 24 hours at 37° C. before isolating membrane protein and measuring membrane ABCA1 levels by western blot. Blots were quantified in ImageJ. In FIG. 35, Signals were further normalized to the T-087 treated group to determine percent (%) ABCA1 levels compared to peptide T-087 treated cells. In FIG. 36, Signals were further normalized to the peptide T-101 treated group to determine percent (%) ABCA1 levels compared to peptide T-101 treated cells.

HMC3 cells = assay: HMC3 cholesterol efflux; format: cell-based, human; conditions: HMC3, 20 μM peptide, 4 hours
Experimental: (§1) FIGS. 27A-27B and FIG. 28 illustrate HMC3 cholesterol efflux. Fully confluent 96-well plates of HMC3 cells were treated for 1 hour in serum-free EMEM containing 10 mM methyl-β-cyclodextrin, 100 μM cholesterol, and 25 μM BODIPY cholesterol. Cells were then washed and incubated overnight in serum free EMEM containing 1 μM LXR agonist GW3965, 2 μg/mL ACAT inhibitor, and 0.2% BSA (LXR Agonist treated), or serum-free EMEM containing 2 μg/mL ACAT inhibitor, and 0.2% BSA (Control). Cells were washed and incubated with 20 μM peptides diluted in serum-free Fluorobrite DMEM for 4 hours at 37° C. Media was transferred to a new 96-well plate and fresh serum-free Fluorobrite DMEM was placed on the cells. Media and cellular fluorescence were read on a Promega GloMax at 475 nm excitation, 500-550 emission. Fluorescence values were background corrected from no treatment conditions and percent efflux was calculated by the following equation: % efflux=(Media Fluorescence values)/(Media+Cell Fluorescence values). Data are presented as mean+SD over two runs per peptide.
as §1, with “FIGS. 30A-30J show” for “FIGS. 27A-27B and FIG. 28 illustrate”, “cholesterol efflux titration curves for the indicated peptides.” for “cholesterol efflux.”, “μM” for “μM LXR agonist”, “or serum free” for “or serum-free”, “with 0-100” for “with 20”, “peptides serially” for “peptides”

Row | membrane ABCA1 levels compared to peptide T-101 treated cells (ABCA1) | Substance | cholesterol efflux in the presence of LXR agonist (HMC3 cells) | further results
1 |  | HLRKLRKRLLRDADDLQDRLAEYQARAKEAFDR [T-063, therapeutic peptide] |  | pEC50 [1]: 3.96
2 |  | HLRKLRKRLLRDGDDLQDRLAEYQARAKEAFDR [T-051, therapeutic peptide] |  | pEC50 [1]: 4.81
3 |  | HLRKLRKRLLRDGDKLQDRLAEYQAGAKEAFDR [T-054, therapeutic peptide] |  | pEC50 [1]: 3.91
4 |  | HLRKLRKRLLRDGDKLSDRLAEYVARAKEAFDR [T-080, therapeutic peptide] |  | pEC50 [1]: 3.81
5 |  | T-005: therapeutic peptide (PLRAELQEGARQKLHELQEKLS) |  | DMPC solubilizing activity [1]: did not have significant solubilizing activity
6 |  | T-006: therapeutic peptide (QDEPPQSPWDRVKDLATVYVDVLKDSGRDYVSQFEGSALGKQLN) |  | DMPC solubilizing activity [1]: significant activity
7 |  | T-010: therapeutic peptide (RDADDLQKRLAVYQAGAREGAE) |  | DMPC solubilizing activity [1]: significant activity
8 |  | T-011: therapeutic peptide (DADDLQKRLAVYQAGAREGAER) |  | DMPC solubilizing activity [1]: significant activity
9 |  | T-014: therapeutic peptide (EQAQQIRLQAEAFQARLKSWFE) |  | DMPC solubilizing activity [1]: significant activity
10 |  | T-015: therapeutic peptide (LVGRQLEEFL) |  | DMPC solubilizing activity [1]: did not have significant solubilizing activity
11 |  | T-017: therapeutic peptide (PLRAELQEGARQKLHELQEKLSPPLRAELQEGARQKLHELQEKLS) |  | DMPC solubilizing activity [1]: did not have significant solubilizing activity
12 | reduction of membrane ABCA1 levels | T-104: therapeutic peptide (TVRGSADALLEHLTRAWDGFNR) |  | 
13 | reduction of membrane ABCA1 levels | T-121: variant of peptide T-101 (ASGADALESALKELKRFIREWT) | greater cholesterol efflux | 
14 | reduction of membrane ABCA1 levels | T-124: variant of peptide T-101 (RSGPDALESALKELKRFIREWT) | greater cholesterol efflux | 
15 | reduction of membrane ABCA1 levels | T-126: variant of peptide T-101 (RSGADPLESALKELKRFIREWT) | greater cholesterol efflux | 
16 | reduction of membrane ABCA1 levels | T-127: variant of peptide T-101 (RSGADAAESAAKELKRFIREWT) |  | 
17 | reduction of membrane ABCA1 levels | T-128: variant of peptide T-101 (RSGADALASALKELKRFIREWT) | greater cholesterol efflux | 
18 | reduction of membrane ABCA1 levels | T-130: variant of peptide T-101 (RSGADALESPLKELKRFIREWT) |  | 

Row | membrane ABCA1 levels compared to peptide T-101 treated cells (ABCA1) | Substance | cholesterol efflux in the presence of LXR agonist (HMC3 cells) | further results
19 | reduction of membrane ABCA1 levels | T-132: variant of peptide T-101 (RSGADALESALAELKRFIREWT) |  | 
20 | reduction of membrane ABCA1 levels | T-134: variant of peptide T-101 (RSGADALESALKEAKRFIREWT) | greater cholesterol efflux | 
21 | reduction of membrane ABCA1 levels | T-135: variant of peptide T-101 (RSGADALESALKELARFIREWT) | greater cholesterol efflux | 
22 | reduction of membrane ABCA1 levels | T-137: variant of peptide T-101 (RSGADALESALKELKRAIREWT) | greater cholesterol efflux | 
23 | reduction of membrane ABCA1 levels | T-138: variant of peptide T-101 (RSGADALESALKELKRFAREWT) | greater cholesterol efflux | 
24 |  | T-140: variant of peptide T-101 (RSGADALESALKELKRFIRAWT) | greater cholesterol efflux | 
25 | reduction of membrane ABCA1 levels | T-141: variant of peptide T-101 (RSGADALESALKELKRFIREAT) | greater cholesterol efflux | 
26 |  | T-142: variant of peptide T-101 (RSGADALESALKELKRFIREWA) | greater cholesterol efflux | 
27 |  | T-143: variant of peptide T-101 (RSGGDALESALKELKRFIREWT) | greater cholesterol efflux | 
28 |  | T-144: variant of peptide T-101 (RSGADGLESALKELKRFIREWT) | greater cholesterol efflux | 
29 | reduction of membrane ABCA1 levels | T-145: variant of peptide T-101 (RSGADALESGLKELKRFIREWT) | greater cholesterol efflux | 
30 |  | T-146: variant of peptide T-101 (AAAADALESALKELKRFIREWT) | greater cholesterol efflux | 
31 | reduction of membrane ABCA1 levels | T-148: variant of peptide T-101 (RSGADALESAAAALKRFIREWT) | greater cholesterol efflux | 
32 | reduction of membrane ABCA1 levels | T-149: variant of peptide T-101 (RSGADALESALKEAAAFIREWT) | greater cholesterol efflux | 
33 | reduction of membrane ABCA1 levels | T-150: variant of peptide T-101 (RSGADALESALKELKRAAAEWT) | greater cholesterol efflux | 
34 |  | T-151: variant of peptide T-101 (RSGADALESALKELKRFIRAAA) | greater cholesterol efflux | 
35 |  | T-173: variant of peptide T-087 (AAAERFRALFKELADYFR) |  | membrane ABCA1 levels compared to peptide T-087 treated cells (ABCA1): reduction of membrane ABCA1 levels
36 |  | T-177: variant of peptide T-087 (DAWERFRALFKEAAAYFR) |  | membrane ABCA1 levels compared to peptide T-087 treated cells (ABCA1): reduction of membrane ABCA1 levels
